Reference: patent publication US11510917B2, “HIF-stabilization and prevention of hyperoxia-induced neonatal lung disease” (CORNELL UNIVERSITY, priority 2016, dated 2022)

What was measured:
[1] = tested on: Mast cells; experiment: Mast cell protease (tryptase, chymase) abundance by Western blot; type: cell-based; conditions: high oxygen (80%)
Text: FIG. 14. […] Mast cells express tryptase and chymase. […] N=4 separate blots, different samples. Aliquots of purified TA and HMC-1 exosomes were homogenized and the protein amounts determined by Lowry assay. Primary antibodies used were: mouse monoclonal TSG 101 (Santa Cruz sc-7964) at 1:500 dilution, mouse monoclonal Alix (Cell Signaling, 2171) at 1:1000 dilution, rabbit polyclonal CD63 (Santa Cruz, sc-15363) at 1:500 dilution, rabbit polyclonal chymase at a 1:2500 dilution (Abcam, 186417), mouse monoclonal mast cell tryptase (Abcam, ab2378) at 1:3000 dilution, rabbit polyclonal elastase (Abcam, ab68672) at 1:1000 dilution, mouse monoclonal mast cell CPA3 (Abcam, ab72575) at 1:500 dilution, and mouse monoclonal GAPDH (Cell Signaling, 14C10) and β-actin (Cell Signaling, 3700) at 1:100,000 dilution. GAPDH and β-actin were used as loading controls.

[2] = tested on: EPO; experiment: ELISA of serum EPO; type: in vivo, mouse
[3] = tested on: lung mast cells; experiment: Lung mast cell number after neonatal hyperoxia; type: in vivo, mouse; conditions: 10 mg/kg, 5-week time point
Text: Lungs from mice (CD1, MCD and CC), not undergoing pulmonary function testing, were fixed at a constant inflation pressure of 25 cm H2O in 10% neutral buffered formalin followed by paraffin embedding. Slides with 7 μm sections were deparaffinized, rehydrated, and washed in distilled water. Some sections were stained with hematoxylin and eosin (H&E) to visualize the structure of the lung. Other sections were stained with an antibody (CC10) (Santa Cruz Biotechnology) (1:50 dilution) to detect club cells, a cell type specific to the airways. Analysis on the alveolar space deliberately avoided airways and blood vessels. For each animal, 5 lung sections were analyzed and quantified as cells per mm^2 of lung tissue. Mast cells were detected in fixed tissue using either the glycoprotein avidin, conjugated to the enzyme horseradish peroxidase (HRP) (Vector Laboratories) or toluidine blue, the classic metachromatic stain for mast cells. Conjugated avidin is a well-defined histochemical method for identifying rodent and human mast cells, which express chondroitin sulfate E proteoglycans and heparin proteoglycans, respectively, in the secretory granules, binding specifically to the proteoglycan granules. Non-specific staining of biotin or biotin-like molecules previously reported […]. Deparaffinized sections were exposed to avidin-HRP 1:500. […]

[4] = tested on: neonatal mice chronically exposed to hyperoxia; experiment: Oxygen-induced lung injury, lung airspace analysis (chord length Lm); type: in vivo, mouse; conditions: for alveolar enlargement, lung histology: 80% O2, 200 mg/kg i.p. intermittent during oxygen supplementation (Example 3); for protection of alveolar size (Lm) against moderate hyperoxia: about 45% O2, 2- and 5-week time points
Text: For this study we utilized a well-defined murine model of CLD using neonatal mice chronically exposed to hyperoxia for 2 weeks followed by normoxia for an additional 3. Timed pregnant mice were monitored hourly. Within hours of birth litters were pooled before being randomly redistributed to the newly delivered mothers. Experiments were begun on newborns at postnatal day 0. Half of the newborn pups were placed in a chamber designed to deliver variable oxygen concentrations (Biospherix Ltd) and set to 80% O2 (HO) and the other half remained in room air (RA) as age-matched controls. Mothers were rotated every 12 hours to prevent death from acute O2 toxicity. Neonatal CD1 mice also referred to as wild-type mice (Charles River), MCD mice (WBB6F1^−W/Wv) and their mast cell competent litter mates WBB6F1-^+/^+ (congenic controls (CC)) (Jackson Laboratories) were exposed to either HO or RA for 2 weeks and then kept in room air (FiO2 of 0.21) an additional 3 weeks for the 5-week time point. Some CD1 mice (HO and RA) were also maintained 18 weeks in room air for the 20-week time point. Survival and weight were monitored daily. All mice (CD1, MCD, and CC) used in this study were healthy at birth and survived until sacrificed. Unless specifically noted as CC or MCD, mouse experiments were performed with CD1 mice.
Oxygen-induced lung injury and lung airspace analysis. A well-defined murine model of CLD, a.k.a. bronchopulmonary dysplasia, using neonatal mice chronically exposed to hyperoxia followed by normoxia was used for our studies. Timed pregnant CD1 mice (Charles River) were monitored hourly. Within hours of birth litters were pooled before being randomly redistributed to the newly delivered mothers. Half of the newborn pups were immediately placed in a chamber designed to deliver variable oxygen concentrations (Biospherix) and set to 80%, 45% or 30% O2 (hyperoxia) and the other half remained in room air. Mothers were rotated every 12 hrs to prevent death from acute O2 toxicity. Newborn pups were exposed to either hyperoxia or room air for 2 weeks. […] Some animals were then kept in room air for an additional 3 weeks or 18 weeks before analysis. Lungs from mice were fixed at a constant inflation pressure of 25 cm H2O in 10% neutral buffered formalin followed by paraffin embedding. Sections (7 μm) were cut and slides of paraffinized tissue sections were deparaffinized, rehydrated, and washed in distilled water. Sections were stained with hematoxylin and eosin to visualize the structure of the lung. The direct method was used for the accurate estimation of the mean linear intercept length (Lm) (chord length) to assess the mean free distance in the alveoli. This method uses a set of random intercepts and calculates Lm from their frequency distribution and provides results on alveolar size distribution and alveolar surface area. […] On average 30-50 non-overlapping 1 mm^2 fields were analyzed for each lung section. Mean chord length of each alveolus (μm) was measured with the areas of approximately 4,000 individual alveoli/mouse measured in sections from room air mice and about 2,000 individual alveoli/mouse were analyzed in lung sections from hyperoxic mice.
The direct method was used for the accurate estimation of the mean linear intercept length (Lm) (chord length) to assess the mean free distance in the alveoli. […] On average 30-50 non-overlapping 1 mm^2fields were analyzed for each lung section and mean chord length of each alveolus (μm) was measured.

[5] = tested on: HIF-1α; experiment: Western blot of HIF-1α protein in mouse organs; type: in vivo
[6] = tested on: Hep3B cells; experiment: HIF-1α stabilization and EPO expression in cultured hepatoma cells; type: cell-based, human
[7] = tested on: HIF PHD; experiment: luc-ODD luciferase reporter, live imaging and organ lysates; type: in vivo, mouse
Method: Detection of luc-ODD luciferase reporter in vivo and in vitro. Live imaging of luciferase activity was performed using Bruker Xtreme small animal x-ray, fluorescence bioluminescence imaging system. Luc-ODD mouse pups at 12 days of age (P12) were divided into appropriate experimental groups identified by ear notches and treated according to the experimental design, i.e., various length of pharmacological treatment (0, 3, 9, 24 hrs), or route of administration (intraperitoneal vs subcutaneous for 3 hrs). […] Ten minutes later, pups (in groups of 2 to 4) were placed in an imaging chamber supplied with a heated pad and inhalation cones for oxygen/isofurane mixture. Ventral and dorsal bioluminescent images were collected for 30 sec followed by white light images taken at autoexposure time. Light and luminescent images where then superimposed and quantitatively analyzed using Bruker MI v7 software. Luciferase activity in mouse organs was detected as follows. […] Tissues were placed in Glo Lysis Buffer (Promega), homogenized with disposable plastic pestles fitted to 1.5 mL microtubes on ice and centrifuged at 20,000×g, 4° C., for 15 min. Protein concentrations of tissue extracts were determined using BCA Protein Assay (Thermo Sci), adjusted to 150 ug (retina), 300 ug (kidney, spleen, lung) or 600 ug (brain, liver) per assay reaction by diluting with Glo Lysis Buffer in a total volume of 100 uL and placed in the wells of white opaque 96-well plate. Diluted extracts were then brought to room temperature, mixed with equal volume (100 uL) of ready-to-use luciferase substrate Bright-Glo Luciferase Assay System (Promega) and luminescence was measured immediately by a luminometer/fluorimeter Victor X2 (PerkinElmer).

[8] = tested on: neonatal mice chronically exposed to hyperoxia; experiment: Pulmonary function test of lung compliance after neonatal hyperoxia; type: in vivo, mouse; conditions: 80% neonatal hyperoxia; intermittent treatment
Method: Pulmonary function tests (PFTs) were performed in 5- (CD1, MCD and CC) and 20-week old mice (CD1) post-neonatal HO or RA. Briefly, mice were anaesthetized with pentobarbital (100 mg/kg, intraperitoneal; American Pharmaceutical Partners), tracheostomized and mechanically ventilated at a rate of 150 breaths/min, a tidal volume of 10 ml/kg and positive end-expiratory pressure of 2-3 cm H2O using a computer-controlled animal ventilator (Sireq). The following perturbations were used to assess baseline respiratory mechanics and analyzed using Flexivent software (Sireq). Static lung compliance (Cst) was determined using the Salazar-Knowles equation applied to the plateau pressure measurements obtained between total lung capacity and functional residual capacity. Broadband forced oscillations were applied to determine tissue resistance (R) and Newtonian (airway) resistance (Rn) using a constant phase model. Mice used for measuring pulmonary function were not used for histological analyses.

[9] = kidney and liver, single i.p. injection

Compound	hyperoxia-induced tryptase and chymase abundance [1]	hyperoxia-induced tryptase and chymase abundance ([1]; listed as RXD)	time of maximal increase in serum erythropoietin (EPO) ([2]; after i.p. injection) [h]	dose of maximal effect, serum EPO as marker of HIF-1 activity ([2]; dose response in the mouse) [mg/kg bodyweight]	increase in serum EPO protein concentration ([2]; i.p. 10 mg/kg, P8 pups) [fold]	lung mast cell increase ([3]; moderate (45%) hyperoxia)	lung mast cell increase ([3]; severe (80%) hyperoxia)	alveolar enlargement, lung histology [4]	alveolar size by chord length (Lm) ([4]; 80% O2 first 2 weeks then 3 weeks room air, 10 mg/kg s.c. intermittent, CD1 pups, 5-week time point, 10 mg/kg)	protection of alveolar size (Lm) against moderate hyperoxia ([4]; CD1 pups)	protection of alveolar size (Lm) against moderate hyperoxia ([4]; CD1 pups, listed as RXD)	increase of HIF-1α protein ([5]; liver and kidney)	increase of HIF-1α protein ([5]; spleen, lung, brain, and retina)	HIF-1α stabilization and expression of EPO mRNA and protein [6]	duration of HIF PHD inhibition [7, 9]	half-life of HIF PHD inhibition [7, 9] [h]	organs with highest luminescence ([7]; luc-ODD mouse, ventral and dorsal views, i.p. or s.c. injection)	luciferase activity over baseline ([7]; tissue lysates, liver) [fold]	lung compliance [8]
Cc1nc(C(=O)NCC(=O)O)c(O)c2ccc(Oc3ccccc3)cc12 [Roxadustat, N-[(4-hydroxy-1-methyl-7-phenoxyisoquinolin-3-yl)carbonyl]glycine]	decreases	decreased	6	10	8	prevents the increase in mast cells	prevents the increase in mast cells	reduced	statistically significant normalization in alveolar size	statistically significant normalization in alveolar size	protective	5-10 fold	two-fold increase	can be recapitulated	at least 24 hours	48 to 72	liver and kidney	6	–
COC(=O)CNC(=O)C(=O)OC [DMOG, N-(2-Methoxy-2-oxaoacetyl)glycine methyl ester]	–	–	–	–	–	–	–	normalizes alveolar enlargement	–	–	–	–	–	–	–	–	–	–	maintains normal lung compliance
